Laboratory results from patent publication US20250255977A1, “EPSILON-POLY-L-LYSINE-BASED DRUG CONJUGATE, INTERMEDIATE THEREOF, AND APPLICATION THEREOF” (SHANGHAI BEST-LINK BIOSCIENCE, LLC, priority 2021, published 2025).
Like-named read-outs stand apart in the source and are kept apart here.

What was measured:
[1] = BALB/C nude, mouse, in vivo, iv, 10 mg/kg
Protocol: Mice were killed at set time points. Plasma was taken after blood centrifugation. Tumor tissues were isolated, temporarily stored in dry ice and then transferred to −80° C. freezer for later use.
Tumor tissues were thawed, weighed and then added a certain amount of 50/50 methanol and water. The mixture was homogenized on the handheld homogenizer with ice bath, centrifuged at 4° C. 6000×g for 10 min, and the supernatant was collected.
30 μL of plasma or homogenized tumor supernatant were taken and added 200 μL of acetonitrile with internal standard (tolbutamide, 50 ng/mL). The mixture was vortexed for 5 min and centrifuged at 6000×g for 10 min. 75 μL of the supernatant was transferred to a 96-well plate pre-added with 75 μL of water and shaked at 500 rpm for 5 min. 2 μL of sample was injected for LC MS/MS analysis.
Column: ACQUITY UPLC BEH C18 (2.1×50 mm, 1.7 μm)
Phase A: 0.1% formic acid/water, Phase B: 0.1% formic acid/acetonitrile

HepG2 tumors = test: In vivo efficacy in HepG2 xenograft CDX mouse model; set-up: species or system BALB/C nude mice; settings: Day 33
Protocol: Biological Assessment Example F: […] The tumor volume was calculated as: […] The evaluation criteria are as follows: […]

[2] = system: H69 small cell lung cancer; test: Efficacy on subcutaneous transplanted 1200 mm^3 H69 small cell lung cancer model; format: in vivo, BALB/C nude mice; settings: topotecan MTD 2 mg/kg (free base) once a day for five days; 1200 mm^3 tumors
Text: Biological Assessment Example I: Comparison of Efficacy of 101B00G and Topotecan on Subcutaneous Transplanted 1200 mm^3 H69 Small Cell Lung Cancer Model

Row | Structure (SMILES) | Plasma concentration of released drug, average value ([1]; 0.083 h) | Plasma concentration of released drug, average value ([1]; 0.5 h) | Plasma concentration of released drug, average value ([1]; 1 h) | Plasma concentration of released drug, average value ([1]; 3 h) | Plasma concentration of released drug, average value ([1]; 8 h) | TGI (%) / tumor inhibition rate (HepG2 tumors) | Increase of tumor volume on Day 22 compared with the initial value [2]
1 | CCc1c2c(nc3ccc(OC(=O)N4CCC(N5CCCCC5)CC4)cc13)-c1cc3c(c(=O)n1C2)COC(=O)[C@]3(O)CC [irinotecan] | 865 | 385 | 407 | 172.6 | 27.7 | −49% | –
2 | CC[C@@]1(O)C(=O)OCc2c1cc1n(c2=O)Cc2cc3c(CN(C)C)c(O)ccc3nc2-1 [topotecan] | – | – | – | – | – | – | 22%
